Consider 20 molecules from PubChem BioAssay (NCI).

Among the test systems are SW-620 colon; HOP-62 NSCLC; MOLT-4 leukemia; UACC-62 melanoma; EKVX NSCLC; SK-MEL-2 melanoma; SNB-19 CNS; K-562 leukemia; MALME-3M melanoma; RXF 393 renal.
Assay in all cases: NCI-60 cell line screen, 48 h

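Exposure lasted 48 hours, with cells grown in 96-well plates and compounds tested at five concentrations. At the TGI there is no net growth.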 A value given as a limit tells only on which side of the number the result lay.

As for `CC(C)(C)N=C1CC(C)(C)c2ccccc2C(=Nc2ccccc2)S1`, the TGI was above 100 µM in the assay on SW-620 colon; above 100 µM in the assay with HOP-62 NSCLC; 69.2 µM in the assay on MOLT-4 leukemia; above 100 µM in the assay with UACC-62 melanoma; above 100 µM in the assay on EKVX NSCLC; 99 µM with SK-MEL-2 melanoma. Further, the TGI was above 100 µM in the assay on SNB-19 CNS, above 100 µM in the assay on K-562 leukemia, 96.5 µM with MALME-3M melanoma and above 100 µM in the assay on RXF 393 renal.
With `C/C(=C/CO[Si](C)(C)C(C)(C)C)C(=O)N(C)c1ccccc1I`, the TGI was 35.8 µM in the assay on SW-620 colon; 36.5 µM in the assay with HOP-62 NSCLC; 72.9 µM in the assay on MOLT-4 leukemia; 28 µM in the assay on UACC-62 melanoma; 29.1 µM with EKVX NSCLC; 30.5 µM in the assay on SK-MEL-2 melanoma. Further, the TGI with SNB-19 CNS is 30.6 µM; with K-562 leukemia, above 100 µM; in the assay on MALME-3M melanoma, 28.3 µM; in the assay on RXF 393 renal, 31.9 µM.
With `O=C(N/N=C\c1cccc2ccccc12)Nc1ccc([N+](=O)[O-])cc1`, the TGI was above 100 µM in the assay with SW-620 colon; 59.2 µM in the assay with HOP-62 NSCLC; above 100 µM with MOLT-4 leukemia; above 68.5 µM in the assay with UACC-62 melanoma; above 100 µM in the assay on EKVX NSCLC; above 68.7 µM with SK-MEL-2 melanoma. Further, the TGI was above 100 µM with SNB-19 CNS, above 100 µM with K-562 leukemia, above 69.4 µM with MALME-3M melanoma and above 42.6 µM in the assay with RXF 393 renal.
Turning to `Cc1cc2ccccc2n1CC(=O)NCC(C)C`, the TGI with SW-620 colon, in the assay on HOP-62 NSCLC, in the assay on MOLT-4 leukemia, with UACC-62 melanoma, with EKVX NSCLC and with SK-MEL-2 melanoma was above 100 µM in each case. Further, the TGI in the assay on SNB-19 CNS, in the assay on K-562 leukemia, with MALME-3M melanoma and in the assay on RXF 393 renal was above 100 µM throughout.
On to `Cc1ccc2nc3c(C)c(Cl)c(=O)cc-3sc2c1`, for which the TGI with SW-620 colon is above 100 µM; in the assay with HOP-62 NSCLC, 69.4 µM; in the assay with MOLT-4 leukemia it was 41.3 µM; in the assay with UACC-62 melanoma, 17.4 µM; in the assay on EKVX NSCLC, above 95.6 µM; in the assay on SK-MEL-2 melanoma, 37.5 µM. In addition, the TGI with SNB-19 CNS was above 100 µM; with K-562 leukemia it was 19 µM; in the assay on MALME-3M melanoma, above 71.5 µM; in the assay on RXF 393 renal, 73.7 µM.
For `O=C(CC(O)(C(F)(F)F)C(F)(F)F)C(CCCl)C(O)(C(F)(F)F)C(F)(F)F` (stereo not given), the TGI with SW-620 colon, in the assay on HOP-62 NSCLC, in the assay on MOLT-4 leukemia, in the assay with UACC-62 melanoma, with EKVX NSCLC and in the assay with SK-MEL-2 melanoma was above 100 µM throughout. The TGI in the assay on SNB-19 CNS is above 100 µM; in the assay with K-562 leukemia, above 100 µM; with MALME-3M melanoma it was 76.1 µM; in the assay on RXF 393 renal, 70.9 µM.
For `c1ccc(CCN2CCCCCC2)nc1`, the TGI in the assay with SW-620 colon, in the assay with HOP-62 NSCLC, with MOLT-4 leukemia, with UACC-62 melanoma, with EKVX NSCLC and with SK-MEL-2 melanoma was above 100 µM throughout. In addition, the TGI in the assay on SNB-19 CNS, in the assay on K-562 leukemia, with MALME-3M melanoma and in the assay on RXF 393 renal was above 100 µM in each case.
For `CN(CCc1ccc(Cl)c(Cl)c1)[C@H]1CCCC[C@H]1N1CCCC1`, the TGI with SW-620 colon, with HOP-62 NSCLC, with MOLT-4 leukemia, with UACC-62 melanoma, in the assay with EKVX NSCLC and with SK-MEL-2 melanoma was above 100 µM each time. The TGI with SNB-19 CNS, with K-562 leukemia, in the assay on MALME-3M melanoma and in the assay on RXF 393 renal was above 100 µM each time.
With `CC(=O)N(CN1C(=O)CCC1C(=O)O)c1ccccc1` (stereo not given), the TGI in the assay on SW-620 colon, in the assay with HOP-62 NSCLC, with MOLT-4 leukemia, in the assay with UACC-62 melanoma, in the assay on EKVX NSCLC and in the assay on SK-MEL-2 melanoma was above 100 µM in each case. For the same molecule, the TGI in the assay with SNB-19 CNS, with K-562 leukemia, with MALME-3M melanoma and with RXF 393 renal was above 100 µM throughout.
Regarding `Nc1nc(Cl)cc(N=Nc2ccccc2)n1`, the TGI in the assay with SW-620 colon is above 100 µM; with HOP-62 NSCLC, 60.1 µM; in the assay with MOLT-4 leukemia, above 100 µM; in the assay on UACC-62 melanoma, above 100 µM; with EKVX NSCLC, above 100 µM; with SK-MEL-2 melanoma, 46.9 µM. For the same molecule, the TGI was above 100 µM in the assay with SNB-19 CNS, above 100 µM in the assay on K-562 leukemia, above 100 µM with MALME-3M melanoma and 97.2 µM in the assay on RXF 393 renal.
With `Clc1nc(-[n+]2ccc(-c3ccncc3)cc2)nc(Nc2ccccc2)c1Cl`, the TGI in the assay with SW-620 colon, with HOP-62 NSCLC, in the assay with MOLT-4 leukemia, in the assay with UACC-62 melanoma, with EKVX NSCLC and with SK-MEL-2 melanoma was above 100 µM each time. Further, the TGI with SNB-19 CNS, in the assay on K-562 leukemia, in the assay with MALME-3M melanoma and in the assay with RXF 393 renal was above 100 µM in each case.
For the molecule `COc1ccc(C2OC(=O)c3c2ccc2ccccc32)c(C)c1` (stereo not given), the TGI in the assay on SW-620 colon was above 100 µM; in the assay on HOP-62 NSCLC it was 50 µM; in the assay with MOLT-4 leukemia, 37 µM; with UACC-62 melanoma it was 90.5 µM; with EKVX NSCLC, above 100 µM; in the assay on SK-MEL-2 melanoma it was 7.52 µM. Further, the TGI with SNB-19 CNS was above 100 µM; in the assay on K-562 leukemia, above 100 µM; with MALME-3M melanoma, 17.3 µM; in the assay with RXF 393 renal, above 100 µM.
Consider `CC(=O)O[C@H]1C#C/C=C\C#CC[C@@H]2C(=O)N(C(=O)OC(C)(C)C)[C@@H]12`, for which the TGI in the assay on SW-620 colon was above 100 µM; in the assay with HOP-62 NSCLC, 39.6 µM; in the assay with MOLT-4 leukemia, above 53.5 µM; in the assay with UACC-62 melanoma, above 100 µM; with EKVX NSCLC, above 100 µM; with SK-MEL-2 melanoma, above 93 µM. Besides, the TGI was 97 µM in the assay with SNB-19 CNS, above 100 µM in the assay on K-562 leukemia, above 100 µM in the assay with MALME-3M melanoma and 56.4 µM in the assay with RXF 393 renal.
Take `OC1CCCC1C(O)(C(F)(F)F)C(F)(F)F` (stereo not given): the TGI in the assay with SW-620 colon, in the assay on HOP-62 NSCLC, in the assay on MOLT-4 leukemia, in the assay with UACC-62 melanoma, with EKVX NSCLC and in the assay on SK-MEL-2 melanoma was above 100 µM throughout. Also, the TGI in the assay with SNB-19 CNS, with K-562 leukemia, with MALME-3M melanoma and with RXF 393 renal was above 100 µM each time.
Regarding `COc1ccc(/C=C/c2cc(O)cc(OC)c2)cc1`, the TGI in the assay with SW-620 colon, in the assay with HOP-62 NSCLC, in the assay on MOLT-4 leukemia, in the assay on UACC-62 melanoma, in the assay on EKVX NSCLC and in the assay with SK-MEL-2 melanoma was above 100 µM each time. The TGI with SNB-19 CNS, with K-562 leukemia, in the assay with MALME-3M melanoma and with RXF 393 renal was above 100 µM each time.
For `COC(=O)[C@H](C)N1C(=O)N[C@@H](C(C)C)C1=O`, the TGI with SW-620 colon, in the assay on HOP-62 NSCLC, in the assay with MOLT-4 leukemia, in the assay with UACC-62 melanoma, with EKVX NSCLC and in the assay with SK-MEL-2 melanoma was above 100 µM each time. Also, the TGI with SNB-19 CNS, in the assay with K-562 leukemia, in the assay with MALME-3M melanoma and in the assay with RXF 393 renal was above 100 µM in each case.
For the molecule `COC(=O)C1=C(O)C(C(=O)OC)[C@@]2(O)[C@@H](C(=O)OC)C(c3ccc(OC(=O)/C(=C/c4ccc(Cl)cc4)c4ccc(Cl)cc4)cc3)C[C@@H]1[C@@H]2C(=O)OC` (stereo not given in full), the TGI in the assay on SW-620 colon is above 100 µM; in the assay on HOP-62 NSCLC, above 100 µM; in the assay with MOLT-4 leukemia it was above 100 µM; in the assay with UACC-62 melanoma it was 24 µM; in the assay on EKVX NSCLC, above 100 µM; with SK-MEL-2 melanoma, 38.2 µM. Further, the TGI in the assay with SNB-19 CNS, in the assay with K-562 leukemia, with MALME-3M melanoma and with RXF 393 renal was above 100 µM in each case.
As to `O=C(/C=C/c1ccc(-c2ccccc2[N+](=O)[O-])o1)NCc1ccc(C(=O)NCCc2ccccc2)cc1`, the TGI with SW-620 colon, in the assay with HOP-62 NSCLC, in the assay with MOLT-4 leukemia, in the assay on UACC-62 melanoma, in the assay on EKVX NSCLC and in the assay on SK-MEL-2 melanoma was above 100 µM each time. For the same molecule, the TGI with SNB-19 CNS, in the assay with K-562 leukemia, in the assay with MALME-3M melanoma and in the assay with RXF 393 renal was above 100 µM in each case.
On to `COc1cccc(NC(=O)CSc2nnc(-c3ccc(N=Cc4ccc(Cl)cc4)cc3)o2)c1`, for which the TGI with SW-620 colon is 37.9 µM; in the assay with HOP-62 NSCLC, above 100 µM; in the assay with MOLT-4 leukemia it was 93.3 µM; with UACC-62 melanoma, 35.1 µM; in the assay on EKVX NSCLC, above 100 µM; in the assay on SK-MEL-2 melanoma, 39.8 µM. For the same molecule, the TGI in the assay on SNB-19 CNS is 53.2 µM; in the assay with K-562 leukemia, above 100 µM; in the assay on MALME-3M melanoma, 39.3 µM; with RXF 393 renal, 34 µM.
For `CN(C)C[C@H]1CC[C@@H](CN(C)C)C1=O`, the TGI with SW-620 colon was 5.55 µM; with HOP-62 NSCLC, above 50 µM; with MOLT-4 leukemia, 4.69 µM; in the assay with UACC-62 melanoma it was 16.6 µM; with EKVX NSCLC it was 24.3 µM; with SK-MEL-2 melanoma it was 15.4 µM. Besides, the TGI in the assay with SNB-19 CNS is above 50 µM; in the assay with K-562 leukemia, 1.43 µM; in the assay on MALME-3M melanoma it was 7.25 µM; with RXF 393 renal it was 16.8 µM.
